Source: BindingDB's records for patent US12391670 (Leadxpro, 2025)

Assays:
Assay in all cases: Radioligand Binding Assay
[1] = target: Adenosine receptor A2a (Homo sapiens, UniProt P29274)
Protocol: (§1) For all four adenosine receptors (A1, A2A, A2B and A3) filtration binding assay was performed. Radioligand binding competition assay was done in duplicates in the wells of a 96-well plate (Master Block, Greiner, 786201) containing binding buffer, receptor membrane extracts, a fixed concentration of tracer and test compound at increasing concentrations. In order to eliminate effect of buffer components, binding buffer was the same for all four receptors and contained: 50 mM Tris-HCl pH 7.4, 5 mM MgCl2, 1 mM EDTA, 150 mM NaCl, 0.1% Na-azide, and 5 U/ml adenosine-deaminase. Nonspecific binding was determined by co-incubation with 200-fold excess of cold competitor. In all radioligand binding experiments, the samples were incubated in a final volume of 0.1 ml for 60 minutes at 25° C. and then filtered over Unifilter plates (Perkin Elmer) pre-treated for 2 hours to limit tracer non-specific binding. Filters were washed five times with 0.5 ml of ice-cold washing buffer (50 mM Tris-HCl pH 7.4, 5 mM MgCl2, 1 mM EDTA) and 50 μl of Microscint 20 (Perkin Elmer) were added to each filter. The plates are incubated 15 min at room temperature on an orbital shaker and then counted with a TopCount™ for 1 min/well.

[2] = target: T1, Adenosine receptor A2b (Homo sapiens, UniProt P29275)
T1 sequence (P29275 whole entry): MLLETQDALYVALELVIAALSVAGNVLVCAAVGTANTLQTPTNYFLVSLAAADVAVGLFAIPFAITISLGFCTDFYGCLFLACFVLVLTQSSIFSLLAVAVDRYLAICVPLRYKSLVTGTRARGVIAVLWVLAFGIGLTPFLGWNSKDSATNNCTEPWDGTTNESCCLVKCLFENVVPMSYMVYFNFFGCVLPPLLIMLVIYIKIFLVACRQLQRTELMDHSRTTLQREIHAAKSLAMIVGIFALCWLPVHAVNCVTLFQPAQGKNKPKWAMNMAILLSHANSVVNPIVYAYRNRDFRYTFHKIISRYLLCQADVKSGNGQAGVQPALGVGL
Protocol: as §1

[3] = target: T2, Adenosine receptor A3 (Homo sapiens, UniProt P0DMS8)
T2 sequence (P0DMS8 whole entry): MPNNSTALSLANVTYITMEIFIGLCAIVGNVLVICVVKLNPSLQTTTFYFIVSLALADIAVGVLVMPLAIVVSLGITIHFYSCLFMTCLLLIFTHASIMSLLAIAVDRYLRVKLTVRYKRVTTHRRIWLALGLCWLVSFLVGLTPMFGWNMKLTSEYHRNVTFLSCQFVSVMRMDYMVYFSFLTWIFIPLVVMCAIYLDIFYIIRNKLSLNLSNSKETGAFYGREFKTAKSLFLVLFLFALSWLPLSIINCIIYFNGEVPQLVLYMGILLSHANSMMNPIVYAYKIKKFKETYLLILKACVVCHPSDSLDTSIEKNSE
Protocol: as §1

Sequence of Adenosine receptor A2a (P29274 whole entry): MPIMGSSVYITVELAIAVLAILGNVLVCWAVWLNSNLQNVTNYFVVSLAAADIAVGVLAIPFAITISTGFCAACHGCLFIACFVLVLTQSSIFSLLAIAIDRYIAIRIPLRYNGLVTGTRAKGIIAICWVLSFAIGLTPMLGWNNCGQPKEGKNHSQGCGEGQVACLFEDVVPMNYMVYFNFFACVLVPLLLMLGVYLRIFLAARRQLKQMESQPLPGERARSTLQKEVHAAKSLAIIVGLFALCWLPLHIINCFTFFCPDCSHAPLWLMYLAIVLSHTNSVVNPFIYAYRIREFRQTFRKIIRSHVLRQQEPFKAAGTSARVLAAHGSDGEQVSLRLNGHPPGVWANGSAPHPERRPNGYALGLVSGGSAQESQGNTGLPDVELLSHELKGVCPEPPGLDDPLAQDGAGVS

Ki [1] [µM]	IC50 [2] [µM]	Ki [2] [µM]	IC50 [1] [µM]	IC50 [3] [µM]	Ki [3] [µM]	SMILES
> 20	1.01	0.891				Cc1nsc(Nc2nnc(-c3ccnc(C(F)(F)F)c3)c(-c3ccccc3F)n2)n1 [US12391670, Example 11]
24	0.25	0.224	24.1	1.35	1.02	Fc1ccccc1-c1nc(Nc2cccnc2)nnc1-c1ccnc(C(F)(F)F)c1 [US12391670, Example 8]
